{"source": "PubChem BioAssay AID1259407", "about": "(Chemical Carcinogenesis Research Information System (CCRIS), 2018)", "test_system": "CCRIS mutagenicity, Ames/micronucleus/aberration tests", "assay": "CCRIS mutagenicity studies", "key": {"[1]": {"details": "Test System: AMES SALMONELLA TYPHIMURIUM, Strain/Indicator: TA98, Metabolic Activation: NONE, Method: STANDARD PLATE"}, "[2]": {"details": "Test System: AMES SALMONELLA TYPHIMURIUM, Strain/Indicator: TA100, Metabolic Activation: NONE, Method: PREINCUBATION"}, "[3]": {"details": "Test System: AMES SALMONELLA TYPHIMURIUM, Strain/Indicator: TA98, Metabolic Activation: NONE, Method: PREINCUBATION"}, "[4]": {"details": "Test System: AMES SALMONELLA TYPHIMURIUM, Strain/Indicator: TA98, Metabolic Activation: RAT LIVER S-9, PHENOBARBITAL AND BETA-NAPHTHOFLAVONE, Method: PREINCUBATION"}, "[5]": {"details": "Test System: AMES SALMONELLA TYPHIMURIUM, Strain/Indicator: TA100, Metabolic Activation: RAT LIVER S-9, PHENOBARBITAL AND BETA-NAPHTHOFLAVONE, Method: PREINCUBATION"}, "[6]": {"details": "Test System: AMES SALMONELLA TYPHIMURIUM, Strain/Indicator: TA102, Metabolic Activation: NONE, Method: PREINCUBATION"}, "[7]": {"details": "Test System: AMES SALMONELLA TYPHIMURIUM, Strain/Indicator: TA102, Metabolic Activation: RAT LIVER S-9, PHENOBARBITAL AND BETA-NAPHTHOFLAVONE, Method: PREINCUBATION"}, "[8]": {"details": "Test System: AMES SALMONELLA TYPHIMURIUM, Strain/Indicator: TA104, Metabolic Activation: NONE, Method: PREINCUBATION"}, "[9]": {"details": "Test System: AMES SALMONELLA TYPHIMURIUM, Strain/Indicator: TA104, Metabolic Activation: RAT LIVER S-9, PHENOBARBITAL AND BETA-NAPHTHOFLAVONE, Method: PREINCUBATION"}, "[10]": {"details": "Test System: AMES SALMONELLA TYPHIMURIUM, Strain/Indicator: TA1535, Metabolic Activation: NONE, Method: PREINCUBATION"}, "[11]": {"details": "Test System: AMES SALMONELLA TYPHIMURIUM, Strain/Indicator: TA1535, Metabolic Activation: RAT LIVER S-9, PHENOBARBITAL AND BETA-NAPHTHOFLAVONE, Method: PREINCUBATION"}, "[12]": {"details": "Test System: AMES SALMONELLA TYPHIMURIUM, Strain/Indicator: TA1537, Metabolic Activation: NONE, Method: PREINCUBATION"}, "[13]": {"details": "Test System: AMES SALMONELLA TYPHIMURIUM, Strain/Indicator: TA1537, Metabolic Activation: RAT LIVER S-9, PHENOBARBITAL AND BETA-NAPHTHOFLAVONE, Method: PREINCUBATION"}, "[14]": {"details": "Test System: E.COLI, Strain/Indicator: WP2UVRA/PKM101, Metabolic Activation: NONE, Method: PREINCUBATION"}, "[15]": {"details": "Test System: E.COLI, Strain/Indicator: WP2UVRA/PKM101, Metabolic Activation: RAT LIVER S-9, PHENOBARBITAL AND BETA-NAPHTHOFLAVONE, Method: PREINCUBATION"}, "[16]": {"details": "Test System: E.COLI, Strain/Indicator: WP2UVRA, Metabolic Activation: NONE, Method: PREINCUBATION"}, "[17]": {"details": "Test System: E.COLI, Strain/Indicator: WP2UVRA, Metabolic Activation: RAT LIVER S-9, PHENOBARBITAL AND BETA-NAPHTHOFLAVONE, Method: PREINCUBATION"}}, "note": "The source made the active and inactive calls. How the calls were made is not given here."}
{"smiles": "ClCOCCl", "values": [{"measurement": "mutagenic call", "setting": "Test System: AMES SALMONELLA TYPHIMURIUM, Strain/Indicator: G46, Metabolic Activation: NONE, Method: STANDARD PLATE", "result": "active; positive"}]}
{"smiles": "CC(C)CC(=O)N=c1sn(C(=O)CC(C)C)c2ccc([N+](=O)[O-])cc12", "values": [{"measurement": "mutagenic call", "setting": "Test System: AMES SALMONELLA TYPHIMURIUM, Strain/Indicator: TA100, Metabolic Activation: S-9, Method: STANDARD PLATE", "result": "active; positive"}]}
{"smiles": "CC(=O)N(CC(O)CO)c1c(I)c(C(=O)NCCO)c(I)c(C(=O)NCC(O)CO)c1I", "note": "(configuration not stated)", "values": [{"measurement": "mutagenic call", "setting": "Test System: AMES SALMONELLA TYPHIMURIUM, Strain/Indicator: TA98, Metabolic Activation: NONE", "result": "inactive; negative"}, {"measurement": "mutagenic call", "setting": "Test System: AMES SALMONELLA TYPHIMURIUM, Strain/Indicator: TA98, Metabolic Activation: RAT, LIVER, S-9", "result": "inactive; negative"}, {"measurement": "mutagenic call", "setting": "Test System: AMES SALMONELLA TYPHIMURIUM, Strain/Indicator: TA100, Metabolic Activation: NONE", "result": "inactive; negative"}, {"measurement": "mutagenic call", "setting": "Test System: AMES SALMONELLA TYPHIMURIUM, Strain/Indicator: TA100, Metabolic Activation: RAT, LIVER, S-9", "result": "inactive; negative"}, {"measurement": "mutagenic call", "setting": "Test System: AMES SALMONELLA TYPHIMURIUM, Strain/Indicator: TA1535, Metabolic Activation: NONE", "result": "inactive; negative"}, {"measurement": "mutagenic call", "setting": "Test System: AMES SALMONELLA TYPHIMURIUM, Strain/Indicator: TA1535, Metabolic Activation: RAT, LIVER, S-9", "result": "inactive; negative"}, {"measurement": "mutagenic call", "setting": "Test System: AMES SALMONELLA TYPHIMURIUM, Strain/Indicator: TA1537, Metabolic Activation: NONE", "result": "inactive; negative"}, {"measurement": "mutagenic call", "setting": "Test System: AMES SALMONELLA TYPHIMURIUM, Strain/Indicator: TA1537, Metabolic Activation: RAT, LIVER, S-9", "result": "inactive; negative"}, {"measurement": "mutagenic call", "setting": "Test System: E.COLI, Strain/Indicator: WP2 UVRA, Metabolic Activation: NONE", "result": "inactive; negative"}, {"measurement": "mutagenic call", "setting": "Test System: E.COLI, Strain/Indicator: WP2 UVRA, Metabolic Activation: RAT, LIVER, S-9", "result": "inactive; negative"}]}
{"smiles": "CCc1cccc2cccnc12", "values": [{"measurement": "mutagenic call", "setting": "Test System: AMES SALMONELLA TYPHIMURIUM, Strain/Indicator: TA100, Metabolic Activation: S-9, Method: PREINCUBATION", "result": "active; positive"}]}
{"smiles": "O=C1Cc2cc3ccc([N+](=O)[O-])cc3cc2[C@H](O)[C@H]1O", "values": [{"measurement": "mutagenic call", "setting": "[1]", "result": "inactive; negative"}]}
{"smiles": "Oc1ccc2[nH]ccc2c1", "values": [{"measurement": "mutagenic call", "setting": "[2]", "result": "inactive; negative"}]}
{"smiles": "CC1(c2ccc(Cl)cc2)CO1", "note": "(configuration not stated)", "values": [{"measurement": "mutagenic call", "setting": "[2]", "result": "active; positive"}]}
{"smiles": "CCN(C(C)=O)c1ccc2c(c1)Cc1ccccc1-2", "values": [{"measurement": "mutagenic call", "setting": "Test System: AMES SALMONELLA TYPHIMURIUM, Strain/Indicator: TA98, Metabolic Activation: RAT, LIVER, S-9, AROCLOR 1254, Method: STANDARD PLATE", "result": "active; positive"}]}
{"smiles": "C=C1CC(=O)O1", "values": [{"measurement": "mutagenic call", "setting": "[3]", "result": "inactive; negative"}, {"measurement": "mutagenic call", "setting": "[4]", "result": "inactive; negative"}, {"measurement": "mutagenic call", "setting": "[2]", "result": "inactive; negative"}, {"measurement": "mutagenic call", "setting": "[5]", "result": "inactive; negative"}, {"measurement": "mutagenic call", "setting": "[6]", "result": "inactive; negative"}, {"measurement": "mutagenic call", "setting": "[7]", "result": "inactive; negative"}, {"measurement": "mutagenic call", "setting": "[8]", "result": "inactive; negative"}, {"measurement": "mutagenic call", "setting": "[9]", "result": "inactive; negative"}, {"measurement": "mutagenic call", "setting": "[10]", "result": "inactive; negative"}, {"measurement": "mutagenic call", "setting": "[11]", "result": "inactive; negative"}, {"measurement": "mutagenic call", "setting": "[12]", "result": "inactive; negative"}, {"measurement": "mutagenic call", "setting": "[13]", "result": "inactive; negative"}, {"measurement": "mutagenic call", "setting": "[14]", "result": "inactive; negative"}, {"measurement": "mutagenic call", "setting": "[15]", "result": "inactive; negative"}, {"measurement": "mutagenic call", "setting": "[16]", "result": "inactive; negative"}, {"measurement": "mutagenic call", "setting": "[17]", "result": "inactive; negative"}]}
{"smiles": "Oc1ccc2c(ccc3[nH]c4ccc5ccccc5c4c32)c1", "values": [{"measurement": "mutagenic call", "setting": "[1]", "result": "inactive; negative"}, {"measurement": "mutagenic call", "setting": "Test System: AMES SALMONELLA TYPHIMURIUM, Strain/Indicator: TA98, Metabolic Activation: RAT, LIVER, S-9, 3-METHYLCHOLANTHRENE, Method: STANDARD PLATE", "result": "active; positive"}, {"measurement": "mutagenic call", "setting": "Test System: AMES SALMONELLA TYPHIMURIUM, Strain/Indicator: TA100, Metabolic Activation: NONE, Method: STANDARD PLATE", "result": "inactive; negative"}, {"measurement": "mutagenic call", "setting": "Test System: AMES SALMONELLA TYPHIMURIUM, Strain/Indicator: TA100, Metabolic Activation: RAT, LIVER, S-9, 3-METHYLCHOLANTHRENE, Method: STANDARD PLATE", "result": "active; positive"}, {"measurement": "mutagenic call", "setting": "Test System: AMES SALMONELLA TYPHIMURIUM, Strain/Indicator: TM677, Metabolic Activation: NONE, Method: PREINCUBATION", "result": "inactive; negative"}, {"measurement": "mutagenic call", "setting": "Test System: AMES SALMONELLA TYPHIMURIUM, Strain/Indicator: TM677, Metabolic Activation: RAT, LIVER, S-9, 3-METHYLCHOLANTHRENE (1%), Method: PREINCUBATION", "result": "active; positive"}, {"measurement": "mutagenic call", "setting": "Test System: AMES SALMONELLA TYPHIMURIUM, Strain/Indicator: TM677, Metabolic Activation: RAT, LIVER, S-9, 3-METHYLCHOLANTHRENE (10%), Method: PREINCUBATION", "result": "active; positive"}, {"measurement": "mutagenic call", "setting": "Test System: AMES SALMONELLA TYPHIMURIUM, Strain/Indicator: TM677, Metabolic Activation: RAT, LIVER, S-9, AROCLOR 1254 (10%), Method: PREINCUBATION", "result": "active; positive"}]}
{"smiles": "NCCCN1CCN(CCCN)CC1", "values": [{"measurement": "mutagenic call", "setting": "[3]", "result": "inactive; negative"}, {"measurement": "mutagenic call", "setting": "[4]", "result": "inactive; negative"}, {"measurement": "mutagenic call", "setting": "[2]", "result": "inactive; negative"}, {"measurement": "mutagenic call", "setting": "[5]", "result": "inactive; negative"}, {"measurement": "mutagenic call", "setting": "[6]", "result": "inactive; negative"}, {"measurement": "mutagenic call", "setting": "[7]", "result": "inactive; negative"}, {"measurement": "mutagenic call", "setting": "[8]", "result": "inactive; negative"}, {"measurement": "mutagenic call", "setting": "[9]", "result": "inactive; negative"}, {"measurement": "mutagenic call", "setting": "[10]", "result": "inactive; negative"}, {"measurement": "mutagenic call", "setting": "[11]", "result": "inactive; negative"}, {"measurement": "mutagenic call", "setting": "[12]", "result": "inactive; negative"}, {"measurement": "mutagenic call", "setting": "[13]", "result": "inactive; negative"}, {"measurement": "mutagenic call", "setting": "[14]", "result": "inactive; negative"}, {"measurement": "mutagenic call", "setting": "[15]", "result": "inactive; negative"}, {"measurement": "mutagenic call", "setting": "[16]", "result": "inactive; negative"}, {"measurement": "mutagenic call", "setting": "[17]", "result": "inactive; negative"}]}
